# Experimental data: paper PMC6600574 (Molecules, 2019)
# How the values were obtained:
# [1] = DPPH radical scavenging assay; type: biochemical; settings: DPPH in ethanol, 30 min
# Procedure: Ascorbic acid was serially diluted to a concentration range of 0.78–100 µg/mL. Ethanol (10%) was used as a blank. Ninety microliters of a […] DPPH (2,2-diphenyl-1-picrylhydrazyl) in ethanol were added to each well. The plates were incubated for 30 min and covered in a layer of foil. Color controls (negative controls) were prepared in the exact same manner as above, but distilled water was added to each well instead of DPPH. The absorbances were measured at a wavelength of 515 nm using a BIO-TEK Power-Wave XS multiplate reader (BIO-TEK Instruments, Winooski, VT, USA). From the absorbances an IC50 value was determined.
# [2] = Nitric oxide scavenging assay (nitroprusside, Griess reagent); type: biochemical; settings: 10 mM nitroprusside, 90 min, read-out: NO IC50
# Procedure: Ethanol (10%) was used as a blank. Nitroprusside (50 μL) at a concentration of 10 mM was added to all the wells. The plates were incubated for 90 min at room temperature. After incubation, Griess reagent (100 μL) was added to all the wells, except for the color controls (negative controls) where instead distilled water was added. The absorbances were read at a wavelength of 546 nm using a BIO-TEK Power-Wave XS multiplate reader. From the absorbances an IC50 value was determined.
structure (smiles),measurement,setting,value
"O=C1O[C@H]([C@@H](O)CO)C(O)=C1O [Ascorbic acid, reference compound]",IC50,[1],43.7 ± 1.12 µM
same,IC50,[2],144 ± 3.3 µM
